Legend:
Experiment in all cases: Kinase selectivity, Mobility shift assay
Format in all cases: biochemical
AURA = AURA (Homo sapiens (Human), UniProt O14965)
Method: (§1) Object: In this assay, the inhibitory activity of the test substance on the kinases listed in Table 3 was determined, and therefore the selectivity of the present compound was determined.
(§2) Except for the BRAF V600E kinase in Table 3, the Mobility shift assay was used for other kinases.
(§3) 1. Preparation of Agents:
(§4) • 1.1 1-fold kinase buffer without MnCl2: 50 mM HEPES, pH 7.5, 0.0015% Brij-35, 10 mM MgCl2, 2 mM DTT. • 1.2 1-fold kinase buffer with MnCl2: 50 mM HEPES, pH 7.5, 0.0015% Brij-35, 10 mM MgCl2, 10 mM MnCl2, 2 mM DTT. • 1.3 Termination solution: 100 mM HEPES, pH 7.5, 0.0015% Brij-35, 0.2% Coating Reagent#3, 50 mM EDTA. • 1.4 2.5-fold kinase solution: The kinase was added to the 1-fold kinase buffer to form a 2.5-fold kinase solution. • 1.5 2.5-fold substrate solution: FAM fluorescence-labelled polypeptide and ATP were added to the 1-fold kinase buffer to form a 2.5-fold substrate solution. 2. Preparation of 5-fold compound
(§5) The final test concentration of the compound was 10 μM at maximum. Firstly, a 50-fold concentration (i.e. 500 μM) was prepared with 100% DMSO. The compound was diluted with 100% DMSO by 5 folds at 5 concentrations (successively 500 μM, 100 μM, 20 μM, 4 μM, and 0.8 μM). After diluting with 1-fold kinase buffer by 10 folds, 5 μl of the samples were transferred to a 384-well reaction plate. Two negative control wells and two positive control wells were set at each line respectively. Replication was made in a 96-well plate in five concentrations of 5-fold compound. 10% DMSO was added to the positive control well, and 5 μl of EDTA (250 mM) was added to the negative control well.
(§6) • 3.1 To the 384-well reaction plate was added 5-fold compound dissolved in 10% DMSO at 5 μl/well. • 3.2 To the 384-well reaction plate was added 2.5-fold kinase solution at 10 μl/well. The plate was incubated at room temperature for 10 mins. • 3.3 To the 384-well reaction plate was added 2.5-fold substrate solution at 10 μl/well. The plate was incubated at 28° C. for a certain period. • 3.4 25 μl termination solution was added to terminate the reaction. The conversion was read from Caliper. 4. Inhibition rate calculation Inhibition rate (%)=(maximum−sample value)/(maximum−minimum)×100 • wherein: • maximum refers to the conversion at the DMSO control well, • minimum refers to the conversion at the control well without kinase. Lanthascreen Analysis Method for the BRAF V600E Kinase 1. Preparation of Agents: • 1.1 2-fold kinase solution: using 1-fold kinase buffer to prepare 2-fold kinase solution, with a final concentration of 0.35 nM of BRAFV600E; • 1.2 4-fold substrate solution: using 1-fold kinase buffer to prepare 4-fold substrate solution, with a final substrate solution concentration of 0.2 μM of Fluorescein-MAP2K1 and 1.5 μM of ATP. 2. Preparation of 4-fold compound • The final test concentration of the compound was 10 μM at maximum. Firstly, a 100-fold concentration (i.e. 1000 μM) was prepared with 100% DMSO. The compound was diluted with 100% DMSO by 5 folds at 5 concentrations. The compound series was identical to that in the Mobility Shift Assay. After diluting with 1-fold kinase buffer by 25 folds, the resulting samples were shaked and mixed evenly on a plate-shaker for 10 mins. 3. Procedure • 3.1 To the 384-well reaction plate was added 4-fold compound dissolved in 10% DMSO at 2.5 µl/well; • 3.2 To the 384-well reaction plate was added 2-fold kinase solution at 5 μl/well, and to the negative control wells were added 1-fold kinase buffer. The samples were shaked, mixed evenly, and kept standing at room temperature. • 3.3 To the 384-well reaction plate was added 4-fold substrate solution at 2.5 μl/well. The plate was reacted, shaked, mixed evenly and incubated at room temperature for one hour; • 3.4 Reaction result detection: 2-fold detection solution was prepared, with a final concentration of 2 nM of Antibody and 10 mM of EDTA. 10 μl of the detection solution was transferred to the 384-well plate to terminate the reaction. […]

MARK1 = MARK1 (Homo sapiens (Human), UniProt Q9P0L2)
Chain of MARK1 (Q9P0L2 whole entry, species assumed): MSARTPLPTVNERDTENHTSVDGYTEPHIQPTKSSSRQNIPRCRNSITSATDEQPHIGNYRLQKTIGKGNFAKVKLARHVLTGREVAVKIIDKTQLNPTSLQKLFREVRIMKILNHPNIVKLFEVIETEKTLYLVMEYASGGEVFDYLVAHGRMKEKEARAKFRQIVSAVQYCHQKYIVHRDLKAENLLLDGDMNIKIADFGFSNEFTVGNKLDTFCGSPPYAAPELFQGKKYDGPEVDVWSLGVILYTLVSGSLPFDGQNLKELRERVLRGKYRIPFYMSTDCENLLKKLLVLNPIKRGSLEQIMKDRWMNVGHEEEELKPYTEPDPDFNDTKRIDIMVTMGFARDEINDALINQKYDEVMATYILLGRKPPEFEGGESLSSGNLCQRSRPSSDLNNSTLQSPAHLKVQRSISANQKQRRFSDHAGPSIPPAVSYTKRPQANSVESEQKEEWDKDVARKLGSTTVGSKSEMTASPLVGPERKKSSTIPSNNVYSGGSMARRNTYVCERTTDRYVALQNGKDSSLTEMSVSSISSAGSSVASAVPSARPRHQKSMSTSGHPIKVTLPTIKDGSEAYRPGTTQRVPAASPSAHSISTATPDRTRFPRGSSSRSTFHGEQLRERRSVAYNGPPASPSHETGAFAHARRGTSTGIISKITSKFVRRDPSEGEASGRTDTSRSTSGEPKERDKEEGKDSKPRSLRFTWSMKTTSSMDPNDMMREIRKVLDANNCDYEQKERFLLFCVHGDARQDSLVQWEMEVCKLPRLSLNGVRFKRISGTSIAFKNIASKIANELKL
Method: as §1, §2, §3, §4, §5, §6

GSK3β = GSK3β (Homo sapiens (Human), UniProt P49841)
Chain of GSK3β (P49841 whole entry, species assumed): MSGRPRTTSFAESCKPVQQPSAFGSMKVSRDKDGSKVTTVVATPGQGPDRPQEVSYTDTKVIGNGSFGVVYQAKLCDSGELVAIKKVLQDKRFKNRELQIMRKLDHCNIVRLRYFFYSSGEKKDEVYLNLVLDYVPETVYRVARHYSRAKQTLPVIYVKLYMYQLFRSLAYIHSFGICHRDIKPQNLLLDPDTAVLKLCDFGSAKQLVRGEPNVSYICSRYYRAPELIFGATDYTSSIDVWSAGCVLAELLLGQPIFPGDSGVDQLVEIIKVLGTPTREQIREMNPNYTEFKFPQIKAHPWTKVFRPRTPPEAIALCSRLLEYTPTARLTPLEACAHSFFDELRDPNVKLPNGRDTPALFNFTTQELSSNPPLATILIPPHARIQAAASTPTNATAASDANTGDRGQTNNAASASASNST
Method: as §1, §2, §3, §4, §5, §6

ROCK2 = ROCK2 (Homo sapiens (Human), UniProt O75116)
Chain of ROCK2 (O75116 whole entry, species assumed): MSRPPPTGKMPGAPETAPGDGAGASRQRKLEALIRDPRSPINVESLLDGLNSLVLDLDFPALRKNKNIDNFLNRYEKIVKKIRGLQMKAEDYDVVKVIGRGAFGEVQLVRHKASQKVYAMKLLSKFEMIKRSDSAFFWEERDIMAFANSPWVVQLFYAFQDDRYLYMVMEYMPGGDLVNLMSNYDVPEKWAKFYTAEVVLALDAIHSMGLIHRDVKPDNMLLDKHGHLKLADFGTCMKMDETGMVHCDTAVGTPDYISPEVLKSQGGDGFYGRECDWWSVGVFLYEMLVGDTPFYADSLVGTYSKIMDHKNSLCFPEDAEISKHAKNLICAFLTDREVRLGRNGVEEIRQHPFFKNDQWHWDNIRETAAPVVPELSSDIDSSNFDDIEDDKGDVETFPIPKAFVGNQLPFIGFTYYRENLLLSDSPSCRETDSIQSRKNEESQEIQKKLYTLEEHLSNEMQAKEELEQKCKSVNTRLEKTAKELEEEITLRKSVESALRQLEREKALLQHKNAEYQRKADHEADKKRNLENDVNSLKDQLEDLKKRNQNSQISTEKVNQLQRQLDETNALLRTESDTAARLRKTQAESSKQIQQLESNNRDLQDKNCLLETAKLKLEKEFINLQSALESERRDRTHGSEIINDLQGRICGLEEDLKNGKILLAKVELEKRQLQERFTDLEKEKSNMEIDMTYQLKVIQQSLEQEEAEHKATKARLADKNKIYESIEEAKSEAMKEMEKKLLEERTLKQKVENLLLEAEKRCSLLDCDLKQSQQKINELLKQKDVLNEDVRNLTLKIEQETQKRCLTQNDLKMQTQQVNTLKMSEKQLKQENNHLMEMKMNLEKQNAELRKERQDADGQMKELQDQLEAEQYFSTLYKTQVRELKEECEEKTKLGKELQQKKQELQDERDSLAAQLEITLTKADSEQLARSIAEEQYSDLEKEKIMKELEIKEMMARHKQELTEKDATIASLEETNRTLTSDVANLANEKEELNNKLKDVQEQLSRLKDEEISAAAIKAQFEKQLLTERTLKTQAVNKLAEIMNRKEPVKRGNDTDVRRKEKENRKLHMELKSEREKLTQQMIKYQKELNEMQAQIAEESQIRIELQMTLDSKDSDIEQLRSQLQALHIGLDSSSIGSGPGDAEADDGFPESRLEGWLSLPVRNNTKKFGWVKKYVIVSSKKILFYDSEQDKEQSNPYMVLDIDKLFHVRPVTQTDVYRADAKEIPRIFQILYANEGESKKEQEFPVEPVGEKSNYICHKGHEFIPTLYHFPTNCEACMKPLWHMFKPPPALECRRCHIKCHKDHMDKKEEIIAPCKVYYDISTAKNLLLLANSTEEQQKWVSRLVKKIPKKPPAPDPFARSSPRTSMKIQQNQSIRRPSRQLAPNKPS
Method: as §1, §2, §3, §4, §5, §6

ALK = ALK (Homo sapiens (Human), UniProt Q9UM73)
Chain of ALK (Q9UM73 19-1620, species assumed): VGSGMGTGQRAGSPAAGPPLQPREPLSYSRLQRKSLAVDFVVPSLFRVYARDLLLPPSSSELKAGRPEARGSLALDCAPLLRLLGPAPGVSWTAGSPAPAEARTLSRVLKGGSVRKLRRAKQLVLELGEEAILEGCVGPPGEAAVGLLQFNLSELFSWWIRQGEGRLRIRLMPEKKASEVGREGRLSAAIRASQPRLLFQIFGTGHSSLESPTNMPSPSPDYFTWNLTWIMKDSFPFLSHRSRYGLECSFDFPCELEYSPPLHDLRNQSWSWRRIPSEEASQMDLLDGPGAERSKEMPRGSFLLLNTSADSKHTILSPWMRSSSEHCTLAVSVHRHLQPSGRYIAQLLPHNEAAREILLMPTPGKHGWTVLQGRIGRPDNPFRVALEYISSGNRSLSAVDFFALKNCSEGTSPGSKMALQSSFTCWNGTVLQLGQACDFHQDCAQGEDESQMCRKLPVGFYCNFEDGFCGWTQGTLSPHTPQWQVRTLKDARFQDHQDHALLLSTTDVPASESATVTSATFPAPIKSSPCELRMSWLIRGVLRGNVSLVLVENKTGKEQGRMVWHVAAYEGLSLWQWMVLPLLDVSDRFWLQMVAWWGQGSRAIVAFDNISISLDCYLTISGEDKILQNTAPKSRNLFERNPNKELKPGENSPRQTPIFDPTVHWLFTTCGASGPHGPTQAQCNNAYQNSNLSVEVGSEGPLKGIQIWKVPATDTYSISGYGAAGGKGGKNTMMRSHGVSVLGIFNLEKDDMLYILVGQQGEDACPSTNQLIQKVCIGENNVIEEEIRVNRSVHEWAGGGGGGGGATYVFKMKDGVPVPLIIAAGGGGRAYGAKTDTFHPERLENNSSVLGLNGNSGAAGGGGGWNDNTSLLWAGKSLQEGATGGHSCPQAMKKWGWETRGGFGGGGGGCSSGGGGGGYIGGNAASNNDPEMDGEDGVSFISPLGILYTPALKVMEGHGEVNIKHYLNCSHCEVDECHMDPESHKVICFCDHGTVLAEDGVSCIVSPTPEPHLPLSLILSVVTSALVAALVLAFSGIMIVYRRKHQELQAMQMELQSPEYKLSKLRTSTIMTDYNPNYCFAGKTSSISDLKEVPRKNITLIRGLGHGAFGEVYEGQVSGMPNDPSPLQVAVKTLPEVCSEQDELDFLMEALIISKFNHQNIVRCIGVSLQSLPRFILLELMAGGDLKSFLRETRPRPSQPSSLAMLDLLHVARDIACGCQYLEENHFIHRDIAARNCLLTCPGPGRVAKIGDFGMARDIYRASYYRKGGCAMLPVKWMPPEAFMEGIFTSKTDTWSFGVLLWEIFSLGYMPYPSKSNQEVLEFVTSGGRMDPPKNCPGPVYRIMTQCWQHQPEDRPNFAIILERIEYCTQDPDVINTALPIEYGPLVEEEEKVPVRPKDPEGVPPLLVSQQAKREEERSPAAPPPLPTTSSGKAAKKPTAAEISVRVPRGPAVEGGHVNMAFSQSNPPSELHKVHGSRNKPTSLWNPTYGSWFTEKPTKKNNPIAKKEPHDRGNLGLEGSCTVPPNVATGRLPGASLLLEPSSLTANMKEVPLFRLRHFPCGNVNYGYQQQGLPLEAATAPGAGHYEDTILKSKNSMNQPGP
Method: as §1, §2, §3, §4, §5, §6

Chain of AURA (O14965 whole entry, species assumed): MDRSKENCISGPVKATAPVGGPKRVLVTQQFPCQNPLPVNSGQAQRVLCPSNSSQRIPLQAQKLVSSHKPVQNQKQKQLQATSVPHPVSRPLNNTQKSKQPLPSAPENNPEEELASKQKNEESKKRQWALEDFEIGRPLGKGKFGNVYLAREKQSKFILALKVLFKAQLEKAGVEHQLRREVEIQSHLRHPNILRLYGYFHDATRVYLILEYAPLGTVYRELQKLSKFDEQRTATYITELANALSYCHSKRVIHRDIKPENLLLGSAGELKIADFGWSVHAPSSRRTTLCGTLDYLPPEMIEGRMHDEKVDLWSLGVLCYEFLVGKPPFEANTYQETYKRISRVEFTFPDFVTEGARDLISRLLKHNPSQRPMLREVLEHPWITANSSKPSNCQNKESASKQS

SMILES: Nc1ccc(-c2ccc3ncc4c(=O)[nH]c(=O)n(-c5cccc(C(F)(F)F)c5)c4c3n2)cn1 [Compound 5, 9-(6-aminopyridin-3-yl)-1-(3-(trifluoromethyl)phenyl)pyrimido[5,4-c][1,5]naphthyridine-2,4(1H,3H)-dione]
- IC50 (AURA): > 10000 nM
- IC50 (MARK1): > 10000 nM
- IC50 (GSK3β): > 10000 nM
- IC50 (ROCK2): > 10000 nM
- IC50 (ALK): 1170 nM

Reference: patent US9365572B2, “PI3K and/or mTOR inhibitor” (XUANZHU PHARMA CO., LTD., priority 2012, dated 2016)
